Assay results reported in ChEMBL document CHEMBL1201862, “PubChem BioAssay data set” (2004).
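Protocol summary: plate cells (96-well), add compound at 5 concentrations, incubate 48 h, interpolate endpoints linearly. GI50: concentration for 50% inhibition of growth.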 Calls of active or inactive are those of the source. Cut-off read from the data, not from the text of the source: active = GI50 up to about 1.1 µM and inactive = higher.

Columns and labels:
Assay in all cases: growth of human tumour cells (NCI), 48 h
[1] = system: LXFL 529
[2] = system: RXF 631
[3] = system: HOP-18
[4] = system: XF498
[5] = system: 786-0
[6] = system: BT-549
[7] = system: MDA-MB-231
[8] = system: MDA-N
[9] = system: DU-145

Row | SMILES | GI50 [1] | GI50 [3] | GI50 [4] | GI50 [5] | GI50 [6] | GI50 [7] | GI50 [8] | GI50 [9] | other results
1 | c1ccc(CCn2cncn2)cc1 | > 100 µM (inactive) |  |  |  |  |  |  |  | GI50 [2]: > 100 µM (inactive)
2 | CC(C)=CCC/C(C)=C/CCC1(C)C=Cc2c(c3ccccc3oc2=O)O1 (stereo unspecified) |  | 17.3 µM (inactive) | 15.5 µM (inactive) |  |  |  |  |  | 
3 | O=C1N/C(=N/N=C/c2c[nH]c3ccccc23)N/C1=C\c1cccs1 |  |  |  | > 100 µM (inactive) | > 100 µM (inactive) | 40.4 µM (inactive) | > 100 µM (inactive) | > 100 µM (inactive) | 
4 | CNS(=O)(=O)NN(C)S(=O)(=O)c1ccc(F)cc1 | > 100 µM (inactive) | > 100 µM (inactive) | > 100 µM (inactive) | > 100 µM (inactive) |  |  |  |  | 
5 | CCSc1nc(N/N=C/c2cccs2)c2cnn(CO)c2n1 |  |  |  | 0.0614 µM (active) |  | 18.3 µM (inactive) |  | 10.3 µM (inactive) | 
6 | COc1cc2c(cc1OC)-c1cc3ccccc3c[n+]1CC2 |  |  |  |  | 54.7 µM (inactive) | > 100 µM (inactive) | > 100 µM (inactive) | > 100 µM (inactive) | 
7 | CCOC(=O)/C=C(\C)c1ccc(Cl)cc1 | > 100 µM (inactive) | > 100 µM (inactive) | > 100 µM (inactive) |  |  |  |  |  | GI50 [2]: > 100 µM (inactive)
8 | O=C(Nc1cccc(O)c1)C(=O)C(C(=O)c1ccccc1F)C1OC(=O)c2ccccc21 (stereo unspecified) | 16.4 µM (inactive) |  |  |  |  |  |  |  | GI50 [2]: 21.6 µM (inactive)
9 | Nc1ccc(Sc2nnc(N)s2)cc1 |  |  |  | > 100 µM (inactive) |  | > 100 µM (inactive) | > 100 µM (inactive) |  | 
10 | CC1=NC=C(O)c2ccccc2O1 | > 100 µM (inactive) |  |  | > 100 µM (inactive) |  |  |  |  | 
11 | COC1=C2CC(C)CC(OC)C(O)C(C)/C=C(\C)C(OC(N)=O)C(OC)/C=C\C=C(/C)C(=O)NC(=C(/C=N/C(C)(C)C)C1=O)C2=O (stereo unspecified) |  | 6.85 µM (inactive) | 0.767 µM (active) |  |  |  |  |  | 
12 | CCN(CC)/[N+]([O-])=N/OC | > 100 µM (inactive) |  | > 100 µM (inactive) |  |  |  |  |  | 
13 | CCOC(=O)/C=C/c1c(C)[nH]c(=O)[nH]c1=O |  | > 250 µM (inactive) | > 250 µM (inactive) |  |  |  |  |  | 
14 | CN(CCCNc1ccc2ncn3c4ccccc4c(=O)c1c23)CCCN1C(=O)c2cccc3cc([N+](=O)[O-])cc(c23)C1=O |  |  |  |  | 0.106 µM (active) | 0.0201 µM (active) | 0.0321 µM (active) |  | 
15 | COC(=O)C1=C(C(=O)OC)C2(C)C=CC1O2 (stereo unspecified) |  |  |  | 3.78 µM (inactive) | 23.1 µM (inactive) | 16.6 µM (inactive) |  | 17.9 µM (inactive) | 
16 | CNC1=C(C)C(=O)C2=C(C1=O)C(COC(N)=O)C1(OC)C3NC3CN21 (stereo unspecified) |  |  |  |  |  |  | 0.574 µM (active) |  | 
17 | Oc1ccc2ccccc2c1/N=N/c1cccc2ccccc12 |  |  |  | 66.1 µM (inactive) | > 100 µM (inactive) | 49.9 µM (inactive) | > 100 µM (inactive) | > 100 µM (inactive) | 
18 | CC1(C)O[C@@H](C[C@]2(C#N)C[C@H](CCl)OC(C)(C)O2)C[C@@H](C#N)O1 |  | > 100 µM (inactive) | 55.8 µM (inactive) | > 100 µM (inactive) |  |  |  |  | 
19 | O=C1Sc2ccccc2/C1=N/Nc1ccccc1[N+](=O)[O-] |  |  |  |  |  |  | 57 µM (inactive) | > 100 µM (inactive) | 
20 | O=C1C(=O)c2ccccc2C=C1[N+](=O)[O-] |  |  |  | 45.1 µM (inactive) | > 100 µM (inactive) | 18.1 µM (inactive) | 19.7 µM (inactive) | 49 µM (inactive) | 
21 | C=C1C[C@@H]2C[C@@H](C)CC(O)[C@]2(CCCN)C1O (stereo partly specified) | > 100 µM (inactive) | > 100 µM (inactive) | > 100 µM (inactive) | > 100 µM (inactive) |  |  |  |  | GI50 [2]: > 100 µM (inactive)
22 | O=C1CNc2cc(N3CCCCC3)ccc2N1 |  |  |  |  | > 100 µM (inactive) |  | 75.2 µM (inactive) | > 100 µM (inactive) | 
23 | COc1cc(O)cc(/C=C/c2ccc(O)cc2)c1 |  |  |  | 29.6 µM (inactive) | 13.6 µM (inactive) | 16 µM (inactive) |  | 39 µM (inactive) | 
24 | C=C(C)C(=O)O[C@H]1CC2=C[C@@H](C[C@@]3(C)O[C@@H]3[C@H]3OC(=O)C(=C)[C@@H]31)OC2=O [ELEPHANTOPIN] |  | 4.33 µM (inactive) |  |  |  |  |  |  | 
25 | COc1cc(O)c2c(c1)C(=O)c1cc(C)cc(O)c1C2=O [PHYSCION] | > 100 µM (inactive) | 51.9 µM (inactive) |  |  |  |  |  |  | GI50 [2]: > 100 µM (inactive)
